The target in one series is CYP2D6 (Homo sapiens, UniProt P10635). The series can be described thus: CYP inhibition assay. Conditions: read-out: % Inhibition at 30 μM CYP 2D6. It is filed as in vitro ADME.
A short description of series [1]: Microsomal stability assay, rat liver microsomes. Conditions: pH 7.4; rat liver microsomes 1.0 mg/mL, 1 μM compound, NADPH; read-out: RLM t1/2. It is filed as in vitro ADME. Summed up: (§1)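 Compound at 1 μM final (1% DMSO) was incubated with rat or human liver microsomes (1.0 mg/mL) in 50 mM KH2PO4 pH 7.4, started with NADPH. Parent remaining at 0, 15, 30 and 60 min was measured by LC-MS/MS. kobs came from ln(% remaining) versus time, and T1/2=[…]/kobs.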

For a further series, the target named is COX2(h) (Homo sapiens, UniProt P35354). The series can be described thus: Selectivity screen, radioligand displacement. It is filed as binding. Particulars: read-out: % Inhib COX2(h). An excerpt:
(§2) If the % inhibition is less than 50%, the test compounds is consider to have no effect.

A further series concerns the target V1a (h) (Homo sapiens, UniProt P37288). The series can be described thus: Selectivity screen, radioligand displacement. Conditions: read-out: % Inhib V1a (h). It is filed as binding.
Description: as §2
On the technique in general: Displacement assays read how much labelled ligand stays bound in the presence of the test substance.

Another series addresses M3 (h) (Homo sapiens, UniProt P20309). Description: Selectivity screen, radioligand displacement. Particulars: read-out: % Inhib M3 (h). It is filed as binding.
Description: as §2

Series [2] has as its target N neuronal alpha 4beta 2 (h) (Homo sapiens, UniProt P17787+P43681). Description: Selectivity screen, radioligand displacement. Type of series: binding. Particulars: read-out: % Inhib N neuronal alpha 4beta 2 (h).
Description: as §2

A further series deals with MAO-A (Rattus norvegicus, UniProt P21396). The series can be described thus: Selectivity screen, radioligand displacement. It is filed as binding. Particulars: read-out: % Inhib MAO-A.
Description: as §2

The next series concerns the target D1 (h) (Homo sapiens, UniProt P21728). Description: Selectivity screen, radioligand displacement. It is filed as binding.
Description: as §2

The target of the next series is beta 2(h) (Homo sapiens, UniProt P07550). The series can be described thus: Selectivity screen, radioligand displacement. It is filed as binding. Conditions: read-out: % Inhib beta 2(h).
Description: as §2

The next series has as its system NA+ Channel (Site2). The series can be described thus: Selectivity screen, radioligand displacement. It is filed as binding. Conditions: Compound 42 at 10 μM.
Description: as §2

The target in another series is CYP2C19 (Homo sapiens, UniProt P33261). The series can be described thus: CYP inhibition assay. Particulars: read-out: % Inhibition at 30 μM CYP 2C19. It is filed as in vitro ADME.
The nature of series [3]: Microsomal stability assay, human liver microsomes. Type of series: in vitro ADME. Particulars: pH 7.4; human liver microsomes 1.0 mg/mL, 1 μM compound, NADPH; read-out: HLM t1/2. Summed up:
as §1
In general terms: Liver microsomes are vesicles of endoplasmic reticulum, rich in cytochrome P450 enzymes.

In another series the test system is CDK 4/6 or other kinases. Description: Kinase panel assay (whole panel). It is filed as biochemical. Conditions: 10 μM, in words. The text has this: Compound 42 was also screened in a kinase panel assay.
The next series has as its system A549 (lung). Description: Cancer cell proliferation assay (acid phosphatase). It is filed as cell-based. Conditions: Homo sapiens, A549. An outline of the steps: (§3)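 Cells seeded at 4×10^4 cells/ml were incubated overnight at 37° C., 5% CO2, then exposed to compound at varying concentrations in triplicate for 72 hrs. Proliferation was read by acid phosphatase assay (p-nitrophenol phosphate, pH 5.5, 2 hours, 405 nm minus 620 nm) as percent inhibition versus DMSO controls.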

The next series has as its system Calu-6 (lung). Description: Cancer cell proliferation assay (acid phosphatase). Type of series: cell-based. Conditions: Homo sapiens, Table 6A, 72 hrs, read-out: Calu6 IC50. Summed up:
as §3

The next series relates to LS-174T (colon). The series can be described thus: Cancer cell proliferation assay (acid phosphatase). Conditions: Homo sapiens, LS174T; Table 6A; 72 hrs. It is filed as cell-based. An outline of the steps:
as §3

The subject of the next series is HCT-116 (colon). Description: Cancer cell proliferation assay (acid phosphatase). It is filed as cell-based. Particulars: Homo sapiens, HCT-116. An outline of the steps:
as §3

Setting [4] is: Table 6D, another set of cell proliferation assay.

Read-outs that look alike come from different tables or passages of the source.

This note sets out measurements from patent publication US10889553B2, “Asymmetric triazole benzamide derivatives and the compositions and methods of treatment regarding the same” (NysnoBio Ireland DAC, priority 2017, dated 2021).

A word on the EC50: it is the concentration at which the effect is half-maximal. Lower therefore signals greater potency.

M3 (h), sequence (P20309 whole entry): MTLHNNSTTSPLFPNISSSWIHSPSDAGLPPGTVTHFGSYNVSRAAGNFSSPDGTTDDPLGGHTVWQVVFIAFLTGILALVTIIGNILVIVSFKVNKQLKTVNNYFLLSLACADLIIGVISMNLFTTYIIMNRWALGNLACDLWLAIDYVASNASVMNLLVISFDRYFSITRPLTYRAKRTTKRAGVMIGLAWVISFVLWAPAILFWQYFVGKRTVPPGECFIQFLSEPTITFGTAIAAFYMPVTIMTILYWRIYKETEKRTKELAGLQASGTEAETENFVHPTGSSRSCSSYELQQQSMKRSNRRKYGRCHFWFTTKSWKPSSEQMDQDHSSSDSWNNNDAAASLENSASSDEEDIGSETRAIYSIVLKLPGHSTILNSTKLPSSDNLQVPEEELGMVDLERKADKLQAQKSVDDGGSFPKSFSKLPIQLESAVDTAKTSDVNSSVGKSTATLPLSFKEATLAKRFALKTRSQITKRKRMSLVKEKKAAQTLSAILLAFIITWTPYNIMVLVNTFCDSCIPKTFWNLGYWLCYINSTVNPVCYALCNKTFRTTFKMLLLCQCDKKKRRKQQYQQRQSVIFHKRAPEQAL
CYP2D6, sequence (P10635 whole entry): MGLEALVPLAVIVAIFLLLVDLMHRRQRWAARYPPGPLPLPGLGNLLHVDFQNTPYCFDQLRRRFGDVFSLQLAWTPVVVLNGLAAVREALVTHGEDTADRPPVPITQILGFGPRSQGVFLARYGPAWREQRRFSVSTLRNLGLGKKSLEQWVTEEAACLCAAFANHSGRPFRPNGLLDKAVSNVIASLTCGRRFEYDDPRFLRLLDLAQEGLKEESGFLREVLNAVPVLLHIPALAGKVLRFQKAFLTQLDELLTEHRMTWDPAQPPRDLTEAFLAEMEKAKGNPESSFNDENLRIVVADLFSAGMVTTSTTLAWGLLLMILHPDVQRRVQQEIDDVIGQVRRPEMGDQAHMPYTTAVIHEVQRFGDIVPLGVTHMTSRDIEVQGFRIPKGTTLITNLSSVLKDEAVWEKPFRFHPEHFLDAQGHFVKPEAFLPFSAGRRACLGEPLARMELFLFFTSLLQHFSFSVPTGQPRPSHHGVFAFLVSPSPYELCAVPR
beta 2(h), sequence (P07550 whole entry): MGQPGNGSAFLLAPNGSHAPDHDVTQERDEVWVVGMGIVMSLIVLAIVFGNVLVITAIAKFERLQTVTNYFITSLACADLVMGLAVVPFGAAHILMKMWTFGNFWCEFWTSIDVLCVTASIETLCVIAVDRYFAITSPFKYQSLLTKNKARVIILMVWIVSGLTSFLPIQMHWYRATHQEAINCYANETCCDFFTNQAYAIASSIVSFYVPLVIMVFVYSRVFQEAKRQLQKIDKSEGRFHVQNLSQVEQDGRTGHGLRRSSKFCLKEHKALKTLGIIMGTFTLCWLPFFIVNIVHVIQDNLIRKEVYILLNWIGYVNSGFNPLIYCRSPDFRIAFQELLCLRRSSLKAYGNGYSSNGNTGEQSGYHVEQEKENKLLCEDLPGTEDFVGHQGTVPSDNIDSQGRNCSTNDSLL
COX2(h), sequence (P35354 18-604): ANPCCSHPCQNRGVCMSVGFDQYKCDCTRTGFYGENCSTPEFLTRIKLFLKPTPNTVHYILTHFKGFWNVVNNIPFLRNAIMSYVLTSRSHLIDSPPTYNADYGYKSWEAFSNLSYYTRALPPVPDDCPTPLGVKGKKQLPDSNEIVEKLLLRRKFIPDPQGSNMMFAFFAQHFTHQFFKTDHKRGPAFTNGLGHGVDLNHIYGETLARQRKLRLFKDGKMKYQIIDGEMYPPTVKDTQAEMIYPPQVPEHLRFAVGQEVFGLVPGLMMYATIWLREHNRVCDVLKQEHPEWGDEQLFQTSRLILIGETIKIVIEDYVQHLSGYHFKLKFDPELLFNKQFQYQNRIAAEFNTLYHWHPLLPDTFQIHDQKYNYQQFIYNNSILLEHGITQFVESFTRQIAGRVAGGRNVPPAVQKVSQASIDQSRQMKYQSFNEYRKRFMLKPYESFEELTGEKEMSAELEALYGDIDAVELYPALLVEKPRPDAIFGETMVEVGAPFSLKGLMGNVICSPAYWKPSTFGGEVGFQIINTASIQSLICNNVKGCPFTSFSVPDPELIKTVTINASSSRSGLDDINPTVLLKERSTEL
V1a (h), sequence (P37288 whole entry): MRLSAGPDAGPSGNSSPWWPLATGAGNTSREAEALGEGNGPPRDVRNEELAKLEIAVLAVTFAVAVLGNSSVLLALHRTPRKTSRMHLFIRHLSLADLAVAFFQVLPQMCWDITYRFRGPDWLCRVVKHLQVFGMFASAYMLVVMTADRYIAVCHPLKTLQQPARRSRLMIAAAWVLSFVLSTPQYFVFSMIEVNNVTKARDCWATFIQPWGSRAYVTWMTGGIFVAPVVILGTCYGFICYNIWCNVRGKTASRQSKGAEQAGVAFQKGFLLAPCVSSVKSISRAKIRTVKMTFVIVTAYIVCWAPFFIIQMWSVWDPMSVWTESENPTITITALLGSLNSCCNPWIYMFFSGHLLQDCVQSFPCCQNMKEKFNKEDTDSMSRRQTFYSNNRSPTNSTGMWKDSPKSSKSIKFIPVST
CYP2C19, sequence (P33261 whole entry): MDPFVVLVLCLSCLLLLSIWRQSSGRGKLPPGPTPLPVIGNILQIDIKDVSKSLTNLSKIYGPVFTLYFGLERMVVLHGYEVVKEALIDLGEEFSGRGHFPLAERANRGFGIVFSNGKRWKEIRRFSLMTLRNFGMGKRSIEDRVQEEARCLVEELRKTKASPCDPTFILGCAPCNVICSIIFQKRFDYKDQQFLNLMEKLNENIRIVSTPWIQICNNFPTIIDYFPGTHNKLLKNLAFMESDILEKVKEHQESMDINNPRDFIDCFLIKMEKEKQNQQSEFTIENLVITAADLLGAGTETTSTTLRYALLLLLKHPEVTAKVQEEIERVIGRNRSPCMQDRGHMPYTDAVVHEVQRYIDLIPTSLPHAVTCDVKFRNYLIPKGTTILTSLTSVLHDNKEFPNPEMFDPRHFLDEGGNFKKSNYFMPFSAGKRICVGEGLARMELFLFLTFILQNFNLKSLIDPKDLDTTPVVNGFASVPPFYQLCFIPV
MAO-A, sequence (P21396 whole entry): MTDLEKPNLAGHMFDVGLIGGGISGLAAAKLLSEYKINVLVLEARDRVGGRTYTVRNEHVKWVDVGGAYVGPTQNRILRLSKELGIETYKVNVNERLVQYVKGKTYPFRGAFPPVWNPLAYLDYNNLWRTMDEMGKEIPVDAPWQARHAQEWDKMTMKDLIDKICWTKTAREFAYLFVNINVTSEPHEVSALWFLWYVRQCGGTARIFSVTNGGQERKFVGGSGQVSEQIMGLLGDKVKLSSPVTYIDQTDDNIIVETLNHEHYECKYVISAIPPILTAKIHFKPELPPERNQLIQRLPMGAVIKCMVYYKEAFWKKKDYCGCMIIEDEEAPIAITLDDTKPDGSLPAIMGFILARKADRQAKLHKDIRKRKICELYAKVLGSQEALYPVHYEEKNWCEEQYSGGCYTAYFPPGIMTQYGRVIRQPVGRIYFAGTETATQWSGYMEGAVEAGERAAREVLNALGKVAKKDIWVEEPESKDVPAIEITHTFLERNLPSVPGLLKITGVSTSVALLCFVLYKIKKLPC
N neuronal alpha 4beta 2 (h), sequence (P43681 29-627 limits assumed): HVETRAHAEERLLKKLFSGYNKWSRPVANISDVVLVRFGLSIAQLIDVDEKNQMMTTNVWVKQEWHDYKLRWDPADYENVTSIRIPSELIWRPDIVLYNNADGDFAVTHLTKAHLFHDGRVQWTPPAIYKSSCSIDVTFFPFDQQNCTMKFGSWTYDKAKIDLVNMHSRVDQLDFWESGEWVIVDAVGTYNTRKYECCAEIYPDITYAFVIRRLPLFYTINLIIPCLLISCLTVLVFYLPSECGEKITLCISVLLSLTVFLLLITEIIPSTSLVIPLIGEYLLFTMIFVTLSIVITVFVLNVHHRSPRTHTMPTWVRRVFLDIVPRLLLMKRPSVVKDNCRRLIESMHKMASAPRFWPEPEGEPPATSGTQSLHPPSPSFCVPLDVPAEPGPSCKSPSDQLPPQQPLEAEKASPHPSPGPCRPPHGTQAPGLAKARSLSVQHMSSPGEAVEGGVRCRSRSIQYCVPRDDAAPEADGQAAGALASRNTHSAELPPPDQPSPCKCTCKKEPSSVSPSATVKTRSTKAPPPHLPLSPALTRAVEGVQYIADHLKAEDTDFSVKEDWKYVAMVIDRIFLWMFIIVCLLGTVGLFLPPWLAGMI
N neuronal alpha 4beta 2 (h), sequence (P17787 26-502): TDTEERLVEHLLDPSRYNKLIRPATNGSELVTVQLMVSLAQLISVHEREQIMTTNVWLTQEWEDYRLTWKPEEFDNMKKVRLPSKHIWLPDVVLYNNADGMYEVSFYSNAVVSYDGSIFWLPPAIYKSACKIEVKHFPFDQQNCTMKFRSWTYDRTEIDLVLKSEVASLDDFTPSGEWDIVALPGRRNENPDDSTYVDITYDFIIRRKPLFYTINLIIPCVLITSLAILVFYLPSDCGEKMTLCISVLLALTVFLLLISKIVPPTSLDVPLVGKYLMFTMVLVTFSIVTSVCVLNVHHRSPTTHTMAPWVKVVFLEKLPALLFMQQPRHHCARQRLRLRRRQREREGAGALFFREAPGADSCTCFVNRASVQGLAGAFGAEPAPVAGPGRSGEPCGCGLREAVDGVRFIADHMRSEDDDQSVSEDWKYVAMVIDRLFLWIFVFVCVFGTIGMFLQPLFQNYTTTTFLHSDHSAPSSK

Consider `Cc1ccccc1C(=O)Nc1nc(NC(=O)c2ccccc2C)n(-c2ccc(OC(F)(F)F)cc2)n1` [Compound 42, N,N′-(1-(4-(trifluoromethoxy)phenyl)-1H-1,2,4-triazole-3,5-diyl)bis(2-methylbenzamide)], for which the inhibition at 30 μM on CYP2D6 was found to be 6.87%; on CYP2C19 it was 60.5%. The half-life at 1 μM in series [1] is 3.85 h; in series [3], more than 8.33 h. Also, the inhibition at 10 µM at COX2(h) was 1%; on V1a (h), 5%; at M3 (h), less than 1%; in series [2], less than 1%; on MAO-A it was 4%; on D1 (h), less than 1%. Also, at beta 2(h), the inhibition at 10 µM turned out to be 9%. Moreover, in the series on NA+ Channel (Site2), the “% Inhib NA+ Channel (Site2)” value is reported as 43%. The “inhibition of CDK 4/6 or other kinases” value with CDK 4/6 or other kinases is “does not inhibit”. Further, the IC50 with A549 (lung) (Table 6A, 72 hrs, read-out: A549 IC50) was 0.03 µM; in the series with A549 (lung) (Table 6C, data of FIG. 2, read-out: IC50 (μM) A549 (lung)) it was 65 µM; in the series on Calu-6 (lung), 60 nM; with LS-174T (colon), 200 nM; in the series with HCT-116 (colon) (Table 6A, 72 hrs, read-out: HCT-116 IC50) it was 0.07 µM; with HCT-116 (colon) (Table 6C, data of FIG. 2, read-out: IC50 (μM) HCT-116 (colon)), 0.08 µM. The IC50 in the series with HCT-116 (colon) (Table 6E, read-out: Proliferation IC50 (nM) CRC HCT-116) amounted to 0.087 µM. Also, the concentration giving a half-maximal response (EC50) in the series with A549 (lung) (setting [4]) was found to be 72 nM; in the series on HCT-116 (colon) (setting [4]), 87 nM.
